Measured values: patent publication US20250163054A1, “SUBSTITUTED BICYCLIC HETEROARYL COMPOUNDS USEFUL AS INHIBITORS OF TLR9” (Bristol-Myers Squibb Company, priority 2022, published 2025)

How the values were obtained:
Assay type in all cases: cell-based
[1] = target: T1, human TLR9 (Homo sapiens, UniProt Q9NR96); assay: TLR7/8/9 Inhibition Reporter Assays (TLR9); conditions: HEK-Blue cells overexpressing human TLR9, SEAP reporter, stimulated with TLR9 ligand ODN2006
T1 construct: host or cells: HEK-Blue cells (HEK293-derived reporter line)
T1 sequence (Q9NR96 26-1032): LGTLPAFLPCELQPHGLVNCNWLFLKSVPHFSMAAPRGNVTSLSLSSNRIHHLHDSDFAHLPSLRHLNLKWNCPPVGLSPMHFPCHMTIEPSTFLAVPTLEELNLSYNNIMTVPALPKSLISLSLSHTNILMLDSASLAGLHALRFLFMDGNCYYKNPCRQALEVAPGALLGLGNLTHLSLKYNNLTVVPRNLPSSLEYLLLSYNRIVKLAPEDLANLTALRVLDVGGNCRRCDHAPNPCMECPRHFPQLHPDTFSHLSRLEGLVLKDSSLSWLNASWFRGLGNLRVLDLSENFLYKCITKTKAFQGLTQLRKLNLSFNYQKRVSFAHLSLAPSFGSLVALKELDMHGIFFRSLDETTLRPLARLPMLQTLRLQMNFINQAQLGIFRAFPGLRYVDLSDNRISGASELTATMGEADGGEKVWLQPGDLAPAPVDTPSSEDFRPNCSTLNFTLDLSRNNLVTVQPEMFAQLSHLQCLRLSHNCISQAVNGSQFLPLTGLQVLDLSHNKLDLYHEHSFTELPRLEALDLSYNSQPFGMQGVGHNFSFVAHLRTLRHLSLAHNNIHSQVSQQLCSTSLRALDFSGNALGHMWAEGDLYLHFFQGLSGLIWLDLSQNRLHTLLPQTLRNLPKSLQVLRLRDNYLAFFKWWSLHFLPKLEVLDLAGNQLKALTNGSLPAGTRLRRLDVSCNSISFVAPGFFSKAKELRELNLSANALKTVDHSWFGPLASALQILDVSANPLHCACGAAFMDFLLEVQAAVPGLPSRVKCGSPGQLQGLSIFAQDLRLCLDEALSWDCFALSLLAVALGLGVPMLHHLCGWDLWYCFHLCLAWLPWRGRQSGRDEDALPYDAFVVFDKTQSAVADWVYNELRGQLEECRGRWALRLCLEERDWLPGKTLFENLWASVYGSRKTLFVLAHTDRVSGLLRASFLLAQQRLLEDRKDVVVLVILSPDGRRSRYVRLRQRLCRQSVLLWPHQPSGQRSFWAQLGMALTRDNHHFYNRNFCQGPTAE
Method in brief: (§1)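 HEK-Blue cells overexpressing human TLR7, TLR8 or TLR9 with NF-κB/AP-1-driven SEAP reporter, pre-treated 60 min with compound ([…]). Stimulated with […] (TLR7), […] (TLR8) or ODN2006 200 nM (TLR9), then 22 h at 37° C; SEAP measured, % inhibition relative to agonist-plus-DMSO and known-inhibitor wells.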

[2] = target: T2, human TLR7 (Homo sapiens, UniProt Q9NYK1); assay: TLR7/8/9 Inhibition Reporter Assays (TLR7); conditions: HEK-Blue cells overexpressing human TLR7, SEAP reporter, stimulated with TLR7 ligand gardiquimod
T2 construct: host or cells: HEK-Blue cells (HEK293-derived reporter line)
T2 sequence (Q9NYK1 27-1049): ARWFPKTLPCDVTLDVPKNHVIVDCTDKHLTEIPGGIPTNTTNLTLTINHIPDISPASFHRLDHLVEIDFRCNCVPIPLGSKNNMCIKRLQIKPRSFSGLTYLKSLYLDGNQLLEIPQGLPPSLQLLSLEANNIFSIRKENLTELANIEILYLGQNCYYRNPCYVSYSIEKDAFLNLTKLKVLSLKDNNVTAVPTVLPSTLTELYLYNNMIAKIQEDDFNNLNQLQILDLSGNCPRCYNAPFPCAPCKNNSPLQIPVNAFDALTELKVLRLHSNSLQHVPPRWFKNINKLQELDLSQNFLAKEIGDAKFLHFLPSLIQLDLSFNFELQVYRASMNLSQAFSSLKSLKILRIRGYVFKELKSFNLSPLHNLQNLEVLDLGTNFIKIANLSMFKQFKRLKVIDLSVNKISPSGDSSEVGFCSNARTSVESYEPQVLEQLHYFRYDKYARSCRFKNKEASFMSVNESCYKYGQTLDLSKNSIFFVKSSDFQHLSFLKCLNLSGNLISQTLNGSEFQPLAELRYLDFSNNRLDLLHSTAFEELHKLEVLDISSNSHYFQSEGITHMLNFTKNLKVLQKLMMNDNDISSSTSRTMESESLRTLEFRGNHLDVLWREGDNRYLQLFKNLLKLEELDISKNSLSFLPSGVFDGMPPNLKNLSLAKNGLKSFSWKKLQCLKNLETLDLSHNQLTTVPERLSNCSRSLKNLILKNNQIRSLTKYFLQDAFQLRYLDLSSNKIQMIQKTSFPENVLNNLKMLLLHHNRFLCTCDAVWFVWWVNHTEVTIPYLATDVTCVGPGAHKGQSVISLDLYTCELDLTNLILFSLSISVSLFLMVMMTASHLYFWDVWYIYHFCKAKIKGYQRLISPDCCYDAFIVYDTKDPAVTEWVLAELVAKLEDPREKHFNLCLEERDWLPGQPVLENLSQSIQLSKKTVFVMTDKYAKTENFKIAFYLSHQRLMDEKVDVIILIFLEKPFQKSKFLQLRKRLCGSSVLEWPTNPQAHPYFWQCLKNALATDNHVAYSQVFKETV
Method in brief: as §1

[3] = target: T3, human TLR8 (Homo sapiens, UniProt Q9NR97); assay: TLR7/8/9 Inhibition Reporter Assays (TLR8); conditions: HEK-Blue cells overexpressing human TLR8, SEAP reporter, stimulated with TLR8 ligand R848
T3 construct: host or cells: HEK-Blue cells (HEK293-derived reporter line)
T3 sequence (Q9NR97 27-1041): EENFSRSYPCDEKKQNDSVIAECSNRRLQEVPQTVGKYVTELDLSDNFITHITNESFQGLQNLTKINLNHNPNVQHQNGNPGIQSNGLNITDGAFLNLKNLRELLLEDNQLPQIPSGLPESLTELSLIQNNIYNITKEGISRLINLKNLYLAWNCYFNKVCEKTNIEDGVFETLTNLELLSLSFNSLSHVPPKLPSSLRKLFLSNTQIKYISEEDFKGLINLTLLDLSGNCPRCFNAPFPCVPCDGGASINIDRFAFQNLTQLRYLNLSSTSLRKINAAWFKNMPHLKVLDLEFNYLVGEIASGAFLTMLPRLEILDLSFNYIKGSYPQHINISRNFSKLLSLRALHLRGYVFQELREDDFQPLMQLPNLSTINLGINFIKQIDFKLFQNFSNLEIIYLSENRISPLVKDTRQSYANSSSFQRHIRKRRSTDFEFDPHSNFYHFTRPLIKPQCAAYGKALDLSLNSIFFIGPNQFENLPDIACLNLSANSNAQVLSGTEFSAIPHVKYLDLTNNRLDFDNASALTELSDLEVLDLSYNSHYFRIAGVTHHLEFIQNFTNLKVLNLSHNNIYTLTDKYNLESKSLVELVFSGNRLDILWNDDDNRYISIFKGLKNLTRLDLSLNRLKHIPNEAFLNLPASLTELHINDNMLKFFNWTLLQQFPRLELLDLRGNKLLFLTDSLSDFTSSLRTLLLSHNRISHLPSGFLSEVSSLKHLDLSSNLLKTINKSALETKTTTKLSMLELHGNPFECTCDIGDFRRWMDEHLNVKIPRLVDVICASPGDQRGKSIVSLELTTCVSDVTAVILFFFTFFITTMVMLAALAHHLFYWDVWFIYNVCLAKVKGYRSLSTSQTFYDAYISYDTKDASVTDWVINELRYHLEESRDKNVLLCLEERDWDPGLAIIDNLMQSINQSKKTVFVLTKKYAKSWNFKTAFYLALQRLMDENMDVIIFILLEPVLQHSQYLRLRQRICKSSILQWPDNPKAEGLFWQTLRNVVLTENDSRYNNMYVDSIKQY
Method in brief: as §1

Compound	IC50 [1] [µM]	IC50 [2] [µM]	IC50 [3] [µM]
Cc1cc(-c2nc3c(C)nc(-c4ccc(N5CCN(CC(C)C)CC5)cc4)cc3n2C)cc(C)n1 [Example 14, 2-(2,6-dimethylpyridin-4-yl)-6-(4-(4-isobutylpiperazin-1-yl)phenyl)-1,4-dimethyl-1H-imidazo[4,5-c]pyridine]	0.38	4.5	4.6
Cc1nc(-c2ccc(N3CC4(C3)CN(C(C)C)C4)cc2)cc2c1nc(-c1ccc(S(C)(=O)=O)cc1)n2C [Example 78, 6-(4-(6-isopropyl-2,6-diazaspiro[3.3]heptan-2-yl)phenyl)-1,4-dimethyl-2-(4-(methylsulfonyl)phenyl)-1H-imidazo[4,5-c]pyridine]	0.13	7.8	6.3
Cn1c(-c2ccc(S(C)(=O)=O)cc2)nc2c(C(F)(F)F)nc(C3=CCN(C4CCN(CC(C)(C)O)CC4)CC3)cc21 [Example 37, 2-methyl-1-(4-(4-(1-methyl-2-(4-(methylsulfonyl)phenyl)-4-(trifluoromethyl)-1H-imidazo[4,5-c]pyridin-6-yl)-3,6-dihydropyridin-1(2H)-yl)piperidin-1-yl)propan-2-ol]	1.1	13	> 50
CC(C)CN1CC2(C1)CN(c1ccc(-c3cc4c(cn3)nc(-c3ccc(S(C)(=O)=O)cc3)n4C3CC3)cc1)C2 [Example 90, 1-cyclopropyl-6-(4-(6-isobutyl-2,6-diazaspiro[3.3]heptan-2-yl)phenyl)-2-(4-(methylsulfonyl)phenyl)-1H-imidazo[4,5-c]pyridine]	0.44	5.8	2.9
COc1ccc(-c2nc3c(C)nc(-c4ccc(N5CC6(C5)CN(C5CCC5)C6)cc4)cc3n2C)cc1OC [Example 77, 6-(4-(6-cyclobutyl-2,6-diazaspiro[3.3]heptan-2-yl)phenyl)-2-(3,4-dimethoxyphenyl)-1,4-dimethyl-1H-imidazo[4,5-c]pyridine]	0.013	0.87	6.9
Cc1nc(-c2ccc(N3CC4(CCN(CC(C)C)CC4)C3)cc2)cc2c1nc(-c1ccc(S(C)(=O)=O)cc1)n2C [Example 98, 6-(4-(7-isobutyl-2,7-diazaspiro[3.5]nonan-2-yl)phenyl)-1,4-dimethyl-2-(4-(methylsulfonyl)phenyl)-1H-imidazo[4,5-c]pyridine]	0.063	2.4	> 50
Cn1c(-c2ccc(S(C)(=O)=O)cc2)nc2c(C(F)(F)F)nc(C3CCN(C4CCN(CC(C)(C)O)CC4)CC3)cc21 [Example 34, 2-methyl-1-(4-(1-methyl-2-(4-(methylsulfonyl)phenyl)-4-(trifluoromethyl)-1H-imidazo[4,5-c]pyridin-6-yl)-[1,4′-bipiperidin]-1′-yl)propan-2-ol]	0.13	3.5	> 50
CC(C)N1CC2(CCN(c3ccc(-c4cc5c(cn4)nc(-c4ccc(S(C)(=O)=O)cc4)n5C4CC4)cc3)CC2)C1 [Example 62, 1-cyclopropyl-6-(4-(2-isopropyl-2,7-diazaspiro[3.5]nonan-7-yl)phenyl)-2-(4-(methylsulfonyl)phenyl)-1H-imidazo[4,5-c]pyridine]	0.25	5.1	1.2
Cc1nc(-c2ccc(N3CCC(N4CCCC4)CC3)c(F)c2)cc2c1nc(-c1ccc(S(C)(=O)=O)cc1)n2C [Example 42, 6-(3-fluoro-4-(4-(pyrrolidin-1-yl)piperidin-1-yl)phenyl)-1,4-dimethyl-2-(4-(methylsulfonyl)phenyl)-1H-imidazo[4,5-c]pyridine]	0.44	2.4	> 50
COc1cc(-c2nc3c(C)nc(-c4ccc(N5CCN(CC6CC6)CC5)cc4)cc3n2C)cn2ncnc12 [Example 11, 6-(6-(4-(4-(cyclopropylmethyl)piperazin-1-yl)phenyl)-1,4-dimethyl-1H-imidazo[4,5-c]pyridin-2-yl)-8-methoxy-[1,2,4]triazolo[1,5-a]pyridine]	0.42	1.1	> 50
Cc1nc(-c2ccc(N3CCC(N(C)C)CC3)cc2)cc2c1nc(-c1ccc(S(C)(=O)=O)cc1)n2C [Example 4, 1-(4-(1,4-dimethyl-2-(4-(methylsulfonyl)phenyl)-1H-imidazo[4,5-c]pyridin-6-yl)phenyl)-N,N-dimethylpiperidin-4-amine]	0.12	1.3	9.2
Cc1nc(-c2ccc(N3CCN(CC(C)C)CC3)cc2)cc2c1nc(-c1ccc(S(C)(=O)=O)cc1)n2C [Example 7, 6-(4-(4-isobutylpiperazin-1-yl)phenyl)-1,4-dimethyl-2-(4-(methylsulfonyl)phenyl)-1H-imidazo[4,5-c]pyridine]	0.24	7	> 50
